Results: article PMC6274355, “Synthesis and Anti-HIV-1 Activity Evaluation for Novel 3a,6a-Dihydro-1H-pyrrolo[3,4-c]pyrazole-4,6-dione Derivatives” (Molecules, 2016)
Where two headings read alike, the source gives them in different places.

Columns and labels:
[1] = tested on: C8166 cells; assay: Cytotoxicity assay (MTT); format: cell-based
Experimental: (§1) The cytotoxicty assay was performed by 3-(4,5-dimethylthiazol-2-yl)-2,5-diphenyl tetrazoliumbromide (MTT) method. Briefly, 100 μL 4 × 10^4 C8166 cells were seeded each well with 100 μL of different concentrations of compounds in a 96-well plate. The plate was incubated 72 h at 37 °C, 5% CO2 incubator. MTT (20 μL, 5 mg/mL) was added to each well and the plate was incubated at 37 °C for 4 h. Supernatant (100 μL) was discarded and 20% SDS-50% DMF (100 μL) was added. The plates were read at 570/630 nm by a Bio-Tek Elx 800 reader (Bio-Tek Instruments, Inc., Winooski, VT, USA). The 50% cytotoxic concentration (CC50) was calculated.

[2] = tested on: HIV-1IIIB; assay: Syncytia inhibition assay (HIV-1IIIB infected C8166 cells); format: cell-based; settings: for TI (in vitro therapeutic index, CC50 value/EC50 value): CC50 in C8166 cells / EC50 syncytia inhibition; for EC50: HIV-1IIIB infected C8166 cells, 72 h, means of two separate experiments, read-out: EC50 (50% effective concentration, reduces syncytia formation by 50%)
Experimental: Target compounds 6–16 were evaluated for their inhibitory activity against HIV-1 replication in acutely infected C8166 cells in vitro according to the previously described method, and AZT was used as a positive control. The assay results of the target compounds are presented in Table 1 and Table 2, expressed as CC50, EC50 and therapeutic index (TI).
The syncytia inhibition assay was applied by counting syncytia which were formed by HIV-1IIIB infected C8166 cells. Briefly, HIV-1IIIB supernatant and C8166 cells were seeded in a 96-well plate with different concentration of compounds. The plate was incubated in a 37 °C, 5% CO2 incubator for 72 h. Syncytia were counting under an inverted microscope and 50% effective concentration (EC50) was calculated. Therapeutic index (TI) was calculated by the ratio of CC50/EC50.

[3] = Cytotoxicity assay (MTT); format: cell-based; settings: human; C8166 cells, MTT, 72 h; means of two separate experiments; read-out: CC50 (50% cytotoxic concentration)
Experimental: as §1

[4] = tested on: HIV; parameters: method as in earlier work; settings: Figure 1; cited from earlier work
[5] = Human immunodeficiency virus 1, C8166, 72 h

Compound	CC50 [1]	TI (in vitro therapeutic index, CC50 value/EC50 value) [2]	EC50 [2]	CC50 ([1]; C8166 cells, MTT, 72 h, means of two separate experiments, read-out: CC50 (50% cytotoxic concentration))	CC50 at 72 h [3]	EC50 [2, 5]	EC50 [4]
3-(2,3-Dihydroxyphenyl)-1-(4-fluorophenyl)-5-[2-(4-fluorophenyl)ethyl]-3a,6a-dihydro-1H-pyrrolo[3,4-c]pyrazole-4,6-dione [10b]	189 µM	39.85	4.73 µM	–	–	–	–
Cc1cn([C@H]2C[C@H](N=[N+]=[N-])[C@@H](CO)O2)c(=O)[nH]c1=O [AZT, reference compound]	–	444,588	0.0085 µM	3780 µM	–	–	–
COc1ccc(N2N=C(c3cccc(OC)c3O)C3C(=O)N(CCc4ccc(F)cc4)C(=O)C32)cc1 (centres unmarked) [15j, 5-[2-(4-Fluorophenyl)-ethyl]-3-(2-hydroxy-3-methoxyphenyl)-1-(4-methoxyphenyl)-3a,6a-dihydro-1H-pyrrolo[3,4-c]pyrazole-4,6-dione]	–	>19.34	–	–	> 409 µM	21.1 µM	–
CCOC(=O)c1ncc(O)c2c1C(=O)N(CCc1ccc(F)cc1)C2=O [compound 5]	–	–	–	–	–	–	1.65 µM
COc1cccc(C2=NN(c3cccc(F)c3)C3C(=O)N(CCc4ccc(F)cc4)C(=O)C23)c1O (centres unmarked) [15a, 1-(3-Fluorophenyl)-5-[2-(4-fluorophenyl)ethyl]-3-(2-hydroxy-3-methoxyphenyl)-3a,6a-dihydro-1H-pyrrolo[3,4-c]pyrazole-4,6-dione]	–	10.67	–	–	129 µM	12.1 µM	–
COc1cccc(C2=NN(c3ccccc3F)C3C(=O)N(CCc4ccc(F)cc4)C(=O)C23)c1O (centres unmarked) [15b, 1-(2-Fluorophenyl)-5-[2-(4-fluorophenyl)ethyl]-3-(2-hydroxy-3-methoxyphenyl)-3a,6a-dihydro-1H-pyrrolo[3,4-c]pyrazole-4,6-dione]	–	>3.71	–	–	> 419 µM	113 µM	–
O=C1C2C(c3cccc([N+](=O)[O-])c3O)=NN(c3ccc(F)cc3)C2C(=O)N1CCc1ccc(F)cc1 (centres unmarked) [9e, 1-(4-Fluorophenyl)-5-[2-(4-fluorophenyl)ethyl]-3-(2-hydroxy-3-nitrophenyl)-3a,6a-dihydro-1H-pyrrolo[3,4-c]pyrazole-4,6-dione]	–	6.56	–	–	49.5 µM	7.55 µM	–
COc1cccc(C2=NN(c3ccc(S(N)(=O)=O)cc3)C3C(=O)N(CCc4ccc(F)cc4)C(=O)C23)c1O (centres unmarked) [15g, 4-[5-[2-(4-Fluorophenyl)ethyl]-3-(2-hydroxy-3-methoxyphenyl)-4,6-dioxo-4,5,6,6a-tetrahydro-3aH-pyrrolo[3,4-c]pyrazol-1-yl]-benzenesulfonamide]	–	1.51	–	–	46 µM	30.4 µM	–
COc1cc([N+](=O)[O-])cc(C2=NN(c3ccc(F)cc3)C3C(=O)N(CCc4ccc(F)cc4)C(=O)C23)c1O (centres unmarked) [compound 11, 1-(4-Fluorophenyl)-5-[2-(4-fluorophenyl)ethyl]-3-(2-hydroxy-3-methoxy-5-nitrophenyl)-3a,6a-dihydro-1H-pyrrolo[3,4-c]pyrazole-4,6-dione]	–	2.15	–	–	90.3 µM	41.9 µM	–
O=C1C2C(c3cccc(O)c3O)=NN(c3ccc(F)cc3)C2C(=O)N1CCc1ccc(F)cc1 (centres unmarked) [compound 6, 3-(2,3-Dihydroxyphenyl)-1-(4-fluorophenyl)-5-[2-(4-fluorophenyl)ethyl]-3a,6a-dihydro-1H-pyrrolo[3,4-c]pyrazole-4,6-dione]	–	>16.37	–	–	> 432 µM	26.4 µM	–
COc1cccc(C2=NN(c3ccc(S(C)(=O)=O)cc3)C3C(=O)N(CCc4ccc(F)cc4)C(=O)C23)c1O (centres unmarked) [15f, 5-[2-(4-Fluorophenyl)ethyl]-3-(2-hydroxy-3-methoxyphenyl)-1-(4-methanesulfonylphenyl)-3a,6a-dihydro-1H-pyrrolo[3,4-c]pyrazole-4,6-dione]	–	>5.70	–	–	> 372 µM	65.3 µM	–
O=C1C2C(c3cccc4c3OCO4)=NN(c3ccc(F)cc3)C2C(=O)N1CCc1ccc(F)cc1 (centres unmarked) [12b, 3-Benzo[1,3]dioxol-4-yl-1-(4-fluorophenyl)-5-[2-(4-fluorophenyl)ethyl]-3a,6a-dihydro-1H-pyrrolo[3,4-c]pyrazole-4,6-dione]	–	31.29	–	–	222 µM	7.11 µM	–
COc1ccc(C2=NN(c3ccc(F)cc3)C3C(=O)N(CCc4ccc(F)cc4)C(=O)C23)c(O)c1 (centres unmarked) [10a, 1-(4-Fluorophenyl)-5-[2-(4-fluorophenyl)ethyl]-3-(2-hydroxy-4-methoxyphenyl)-3a,6a-dihydro-1H-pyrrolo[3,4-c]pyrazole-4,6-dione]	–	2.51	–	–	21.4 µM	8.52 µM	–
COc1cccc(C2=NN(c3ccc(F)cc3)C3C(=O)N(CCc4ccc(F)cc4)C(=O)C23)c1O (centres unmarked) [9g, 1-(4-Fluorophenyl)-5-[2-(4-fluorophenyl)ethyl]-3-(2-hydroxy-3-methoxyphenyl)-3a,6a-dihydro-1H-pyrrolo[3,4-c]pyrazole-4,6-dione]	–	>105.26	3.98 µM	–	> 419 µM	< 5 µM	–
O=C1C2C(c3c(O)ccc4ccccc34)=NN(c3ccc(F)cc3)C2C(=O)N1CCc1ccc(F)cc1 (centres unmarked) [compound 13, 1-(4-Fluorophenyl)-5-[2-(4-fluorophenyl)ethyl]-3-(2-hydroxynaphthalen-1-yl)-3a,6a-dihydro-1H-pyrrolo[3,4-c]pyrazole-4,6-dione]	–	2.00	–	–	9.03 µM	4.5 µM	–
